We go through three compounds from patent publication US6566081B1, “Methods of identifying a compound which modulates the non-transcriptional non-map-kinase induced effects of steroid hormones” (The Brigham and Women's Hospital, Inc., priority 1999, dated 2003).

“Also recorded” adds a separate entry of the source. Numbered stars: 1 amine (or outer) side, 2 acyl side, 3 side chain; on linkers, the order of the positions; unused ones are H or OH. Bridge positions count the residues as written; N and C are the ends. Square brackets hold non-standard residues; d marks the D form. Peptide text beside a SMILES is read from it. I, II: the chains in the order shown. Actinocin(9to1) = Cc1c2oc3c(C)ccc(C(=O)[*:1])c3nc-2c(C(=O)[*:2])c(N)c1=O; NMeV = CN[C@H](C(=O)O)C(C)C; Sar = CNCC(=O)O

Test [1] relates to Akt/PKB. Put plainly: Immunoblotting of Akt phosphorylation (Thr 308, Ser 473). To be noted: E2/αE2 10 nM, insulin 100 nM, 20 min. The format is cell-based, human. The procedure:
After the different treatments, serum-starved endothelial cells were rinsed once with ice-cold PBS before addition of the lysis buffer (100 mM Tris-HCl, pH 6.8, 4% SDS, 20% glycerol, 1 mM sodium orthovanadate, 1 mM NaF, and 1 mM phenylmethylsulfonylfluoride) to the dishes on an ice tray. The cell lysates were scraped, boiled, and centrifuged for 2 min at 13000 rpm. Total cell lysates (40 μg of protein) and low range molecular weight markers (BIO-RAD, Hercules, Calif.) were separated by SDS-polyacrylamide gel electrophoresis (12% running, 4% stacking), electrophoretically transferred to polyvinylidene fluoride membranes (Immobilon P, 0.45 μm pore size) and incubated overnight at 4° C. with blocking solution (5% skim milk in TBS—0.1% Tween 20). Affinity-purified rabbit antibodies (0.4 μg of IgG/ml) vs. Akt, (Ser 473) phospho-Akt or (Thr 308) phospho-Akt (New England BioLabs, Beverly, Mass.), Erk1/2, (Tyr 204) phospho-Erk-1/-2 (Calbiochem, San Diego, Calif.) were incubated with the membranes overnight at 4° C. in TBS—0.1% Tween 20 containing 5% BSA. The blots were washed three times with TBS—0.1% Tween 20 and then treated with donkey anti-rabbit antibody (1:4000 dilution) coupled to horseradish peroxidase. Immunodetection was accomplished using the enhanced chemoluminescence kit (ECL Kit, Amersham Corp.).

The subject of the next test is NO release. Put plainly: Nitrite assay (NO accumulation from endothelial cells). The format is cell-based, human. The note with it: 30 min; E2/αE2 10 nM, insulin 100 nM, acetylcholine. The procedure: NO accumulation from serum-starved endothelial cells was determined by a modified nitrite assay using 2, 3 diaminonaphtalene as described previously.^33 Fluorescence of 1-(H)-naphtotriazole was measured with excitation and emission wavelengths of 365 and 450 nm, respectively. Standard curves were constructed with known amounts of sodium nitrite. Nonspecific fluorescence was determined in the presence of LNMA (3 mM).

Another test has as its system PI3-kinase. Briefly: PI3-kinase assay on p85 immunoprecipitates of endothelial cell lysates. The format is cell-based, human. The note with it: for stimulation of PI3-kinase activity: 20 min, E2/αE2 10 nM, insulin 100 nM. The procedure:
PI3kinase activity in endothelial cell lysates was assayed using the borate thin layer chromatography method, as described.^34 Following a 6 h incubation in serum- and estrogen-deficient medium 199, endothelial cells were treated according to the indicated conditions, washed, and harvested in ice-cold lysis buffer (137 mM NaCl, 20 mM Tris-HCl, pH 7.4, 1 mM CaCl2, 1 mM Mg Cl2, 0.1 mM Na3VO4, 1% NP-40). After pelleting the cell debris, the supernatant was incubated for 1 hour at 4° C. with 5 μL of a rabbit antiserum directed against the p85 regulatory subunit of the PI3-kinase (Upstate Biotechnology, Lake Placid, N.Y.), and immunoprecipitated with the addition of 50 μL of a 1:1 slurry of protein A-agarose for 1 hour at 4° C. Following centrifugation, the immunoprecipitates were washed three times with lysis buffer, three times with 0.1 M Tris-HCl, pH 7.4, 5 mM LiCl, 0.1 mM Na3VO4, followed by two washes with 10 mM Tris-HCl, pH 7.4, 150 mM NaCl, 5 mM EDTA, 0.1 mM Na3VO4.
The immunoprecipitates were then mixed with 50 μL Tris-HCl, pH 7.4, 150 mM NaCl, 5 mM EDTA, 20 μg of phosphatidylinositol (Sigma, Saint Louis, Mo.), 10 μL 100 mM MgCl2 and 5 μL of a 0.88 mM ATP, 20 mM MgCl2 solution, containing 30 μCi of [γ-^32P]ATP (3000 Ci/mmol; NEN Life Science Products, Boston, Mass.). […] The phospholipids were extracted with 160 μL of chloroform/methanol (1:1, v/v). 50 μL of the organic phase, containing the labeled PI3-kinase products were separated by borate thin layer chromatography on glass-backed Silica Gel 60 plates (EM Separations, Gibbstown, N.J.) pretreated with a solution containing 25 mM trans-1,2-diaminocyclohexane-N,N,N′N′-tetraacetic acid (CDTA, Sigma, Saint Louis, Mo.), 66% (v/v) ethanol and 0.06 N NaOH, dried for 1 hour and then baked at 100° C. for 15 minutes. The chromatography was developed with a solution containing 37.5% (v/v) methanol, 30% (v/v) chloroform, 22.5% (v/v) pyridine (Sigma, Saint Louis, Mo.), 1.33% (v/v) formic acid, […] boric acid and 8.5 mM butylated hydroxytoluene (Sigma, Saint Louis, Mo.), briefly dried and exposed to autoradiography.

Test [2] deals with Akt/PKB. Briefly: Akt kinase assay (immunoprecipitated Akt, GSK-3 peptide). The format is cell-based, human. To be noted: E2/αE2 10 nM, insulin 100 nM, 20 min. The procedure:
Immunoprecipitated Akt kinase activity was assayed on endothelial cell lysates by using the Aktl/PKBα immunoprecipitation kinase assay kit (Upstate Biotechnology, Lake Placid, N.Y.). Endothelial cells were starved in phenol red-free199 medium with 0.4% estrogen-deprived FBS, treated, washed, and then harvested in ice-cold Buffer A (50 mM Tris-HCl, pH 7.5, 1 mM EDTA, 1 mM EGTA, […] Na3VO4, 0.1% (v/v) 2-mercaptoethanol, 1% Triton X-100, 50 mM sodium fluoride, 5 mM sodium pyrophosphate, 10 mM sodium glycerophosphate, 0.1 mM PMSF, 1 μg/mL of aprotinin, pepstatin, leupeptin and 1 μM microcystin). The cleared cell lysates were incubated for 1 hour at 4° C. with 4 μg/tube of anit-Akt1/PKBα PH domain immunoaffinity purified sheep IgG, after which 50 μL of a 1:1 (v/v) protein G-agarose slurry was added for an additional hour of incubation at 4° C. After centrifugation, the immunoprecipitates were washed three times with Buffer A containing 0.5 M NaCl, then two times with Buffer B (50 mM Tris-HCl, pH 7.5, 0.03% (w/v) Brij-35, 0.1 mM EGTA, 0.1% (v/v) 2-mercaptoethanol), and finally twice with 1×Assay Buffer (20 mM MOPS, pH 7.2, 25 mM β-glycerol phosphate, 5 mM EGTA, 1 mM Na3VO4, 1 mM DTT).
The immunoprecipitates were resuspended in 10 μL of ice-cold 1×Assay Buffer, and were sequentially added: 10 μL of 40 μM PKA inhibitor peptide ([…]-NH2—corresponding to residues 7-23 of human PKA inhibitor), 10 μL of Akt/PKB specific substrate peptide (100 μM) (RPRAATF—corresponding to the phosphorylation site of glycogen synthase kinase-3, specifically targeted by Akt/PKB, but not by other protein kinases such as Rsk-2 and p70 S6 kinase), and 10 μL of [γ-^32P]ATP stock solution (1×Assay Buffer with 500 μM ATP, 75 mM MgCl2, containing 1 μCi/μL [γ^32-P]ATP, 3000 Ci/mmol). The reaction was incubated at 37° C. for 30 minutes, after which 40 μL of the supernatant was mixed with 20 μL of 40% TCA and incubated for 5 minutes at room temperature. 40 μL of each final fraction were spotted onto the center of a 2 cm×2 cm P81 phosphocellulose paper. The assay squares were washed three times with 0.75% phosphoric acid for five minutes at room temperature, then once with acetone. The squares were then transferred to vials containing a liquid scintillation cocktail and read in a scintillation counter. Blank reaction for the detection of the unspecific background were performed by substituting the cell lysate with Buffer A at the beginning of the procedure, and aspecific endogenous phosphorylation of proteins in the sample extract was estimated by substituting in some samples 1×Assay Buffer for the Akt/PKB specific substrate peptide.

The next test deals with eNOS. Put plainly: eNOS activity assay (conversion of [3H]-arginine to [3H]-citrulline) in treated human endothelial cells. The format is cell-based. The note with it: for effect on E2-stimulated eNOS activity, later phase (≥15 min) or 30 min / effect on E2-stimulated eNOS activity, initial phase (first 5-10 min): E2 10 nM, wortmannin 30 nM, genistein 50 μM, PD98059 5 μM; for effect on E2-stimulated eNOS activity, later phase (≥15 min) or 30 min: ICI 10 μM, actinomycin D 2 h pretreatment. The method, then: Fetal bovine serum was deprived of estrogen by charcoal-stripping. Once grown to confluence the cells were replated on 1.5% gelatin-coated flasks at 20000 cells/cm^2. […] Cell number was assessed by direct cell counting of adherent cells, after trypsin detachment, in a Neubauer hemocytometer (VWR Scientifics). The percentage of cells excluding Trypan Blue after staining with the compound was taken as a measure of cell viability.
Endothelial cells were grown to confluence on 55 cm^2 culture dishes, treated according to the indicated conditions, and harvested in ice-cold PBS containing 1 mM EDTA. The cell lysates were pelleted in a microfuge (2 minutes, 13000 rpm, 4° C.) and subsequently homogenized in a buffer containing 25 mM Tris-HCl, pH 7.4, 1 mM EDTA, 1 mM EGTA. eNOS activity was determined by measuring the conversion of [^3H]-arginine to [^3H]-citrulline. Rat cerebellum extracts, containing elevated amounts of neuronal NOS, were used as positive controls, while endothelial cell extracts incubated in the presence of the competitive eNOS inhibitor L-NAME (1 mM) served as negative controls.
Human and bovine aortic endothelial cells were harvested enzymatically with Type IA collagenase (1 mg/mL).

For another test, the target named is T1, ER-α / PI3-kinase p85α (Homo sapiens, UniProt P03372).
T1 construct: endogenous in cells; host or cells: human endothelial cells (HSVEC), anti-ERα immunoprecipitate
T1 sequence (P03372 1-595): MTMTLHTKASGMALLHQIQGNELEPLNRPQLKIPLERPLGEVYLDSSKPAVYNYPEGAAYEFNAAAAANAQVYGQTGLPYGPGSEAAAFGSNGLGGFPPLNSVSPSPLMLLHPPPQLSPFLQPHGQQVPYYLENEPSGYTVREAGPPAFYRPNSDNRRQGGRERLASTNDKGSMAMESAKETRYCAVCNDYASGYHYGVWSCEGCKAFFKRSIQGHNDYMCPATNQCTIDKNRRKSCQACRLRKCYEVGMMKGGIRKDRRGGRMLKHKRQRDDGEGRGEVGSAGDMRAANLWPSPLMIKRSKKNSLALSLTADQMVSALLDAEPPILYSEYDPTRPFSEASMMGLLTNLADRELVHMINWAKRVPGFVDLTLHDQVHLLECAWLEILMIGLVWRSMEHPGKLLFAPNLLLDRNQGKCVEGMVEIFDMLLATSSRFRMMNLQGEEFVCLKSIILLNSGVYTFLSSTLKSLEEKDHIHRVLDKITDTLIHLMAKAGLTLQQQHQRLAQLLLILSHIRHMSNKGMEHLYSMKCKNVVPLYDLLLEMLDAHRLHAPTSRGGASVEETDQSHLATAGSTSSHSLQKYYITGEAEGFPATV
Put plainly: ER-α immunoprecipitation: co-precipitated p85α and associated PI3-kinase activity. The format is cell-based. To be noted: ICI 10 μM, wortmannin, tamoxifen 1 μM, PD 98059 5 μM, actinomycin D 5 μM.

Regarding `C[C@]12CC[C@@H]3c4ccc(O)cc4CC[C@H]3[C@@H]1CC[C@H]2O` [17α-estradiol], the “Akt Ser 473 phosphorylation” value in the test on Akt/PKB [1] is “ineffective”. Further, the “Akt threonine (Thr 308) phosphorylation” value in the test with Akt/PKB [1] was “ineffective; also recorded: minimal increase”. In addition, in the test on NO release, the “stimulation of NO release / production (nitrite accumulation)” value was “very low effect; also recorded: inability”. Besides, the “stimulation of PI3-kinase activity” value is “ineffective; also recorded: inability” in the test with PI3-kinase and “lack” with PI3-kinase (listed as αE2). Besides, the “stimulation of Akt kinase activity (words)” value was “ineffective” in the test with Akt/PKB [2] and “small increase” with Akt/PKB [2] (listed as 17a-estradiol). Further, the “stimulation of eNOS activity by the substance alone” value in the test with eNOS (E2/αE2 10 nM, insulin 100 nM, 30 min) is listed as “no effect; also recorded: inability”.
For the compound `Cc1c2oc3c(C)ccc(C(=O)N[C@@H]4C(=O)N[C@H](C(C)C)C(=O)N5CCC[C@H]5C(=O)N(C)CC(=O)N(C)[C@@H](C(C)C)C(=O)O[C@@H]4C)c3nc-2c(C(=O)N[C@@H]2C(=O)N[C@H](C(C)C)C(=O)N3CCC[C@H]3C(=O)N(C)CC(=O)N(C)[C@@H](C(C)C)C(=O)O[C@@H]2C)c(N)c1=O` [actinomycin D] (I: T[dV]P[Sar][NMeV] / II: T[dV]P[Sar][NMeV]; ester I:1-I:C, II:1-II:C; linker I:N-II:N via Actinocin(9to1)), at ER-α / PI3-kinase p85α, the “effect on E2-stimulated ER-α-associated PI3-kinase activity” value is “not”. Besides, in the test with eNOS, the “effect on E2-stimulated eNOS activity, later phase (≥15 min) or 30 min” value (“effect … (≥15 min) or 30 min” below) is “did not affect; also recorded: no effect”. Also, in the test on eNOS (insulin 100 nM, 30 min), the “effect on insulin-induced eNOS activity” value is reported as “did not affect; also recorded: no inhibitory effect”. In addition, the “effect on basal eNOS activity, substance alone” value with eNOS (no E2) was “nor had any effects by itself; also recorded: no effect”.
Take `O=c1c(-c2ccc(O)cc2)coc2cc(O)cc(O)c12` [genistein]: in the test on PI3-kinase (E2 10 nM 20 min, ICI 10 μM, wortmannin 30 nM), the “effect on E2-induced PI3-kinase activation” value was “only minimally affected”. In addition, in the test on eNOS, the “effect … (≥15 min) or 30 min” value was “only minimally affected; also recorded: not the later phase; also recorded: little or no inhibitory effect” and the “effect on E2-stimulated eNOS activity, initial phase (first 5-10 min)” value is recorded as “able to block; also recorded: significantly blocked”. Moreover, in the test with eNOS (listed as Genistein), the “effect … (≥15 min) or 30 min” value is “do not block” and the “effect on E2-stimulated eNOS activity, initial phase (first 5-10 min)” value is “blunt”.
